According to US7223733B2, “Modulation of TRIP-Br function and method of treating proliferative disorders” (National University of Singapore, priority 2004, dated 2007):
Where no end group is shown, it is not given here.

Experiments:
[1] = system: E2F-responsive luciferase reporter (pGL3-TATA-6xE2F-Luc); assay: E2F-responsive luciferase reporter assay in U2OS cells; type: cell-based, human; settings: 50 μM, 5 h
Method: DNA Transfection and Sequential β-Galactosidase/Luciferase Assay. For luciferase reporter assays, U2OS cells were cultured in 6-well dishes and transfected 24 h later with various reporter plasmids by the calcium precipitation method as previously described (Martin, K., et al. Nature 375, 691-694 (1995)). 24 h following precipitate removal, cells were exposed for 5 h to either vehicle (0.5% DMSO) or 50 μM of decoy peptide, prior to harvesting. Cells were scraped in 200 μl of lysis buffer and a single 10 μl aliquot of lysate was immediately used for sequential measurement of β-galactosidase and luciferase activity using the Dual Light System (Tropix). For protein overexpression experiments, U2OS cells were cultured in 6-well plates at a density of 1×10^5 cells/well and transfected 24 h later with Superfect reagent (QIAGEN).
FIG. 3: Analysis of E2F-responsive transcription in U2OS cells in response to decoy peptide treatment. […] Values represent the average +/− standard deviation of at least two independent experiments; (B) Semi-quantitative RT-PCR analysis on total RNA for dhfr, cyclin-E, cyclin A2, PCNA, DNA Pola and cdc2 expression in U2OS cells exposed for 16 h to either vehicle (0.5% DMSO) or 50 μM of the indicated decoy peptides. […]

CNE2 tumor = assay: Chick embryo chorioallantoic membrane (CAM) tumor xenograft model; type: in vivo; settings: 50 μM topically, daily; p<0.05
From the text: Cell lines. Human nasopharyngeal cancer cell line CNE2 and human melanoma cell line Mewo were used for tumor inoculation.
Chicken embryo CAM preparation. To apply cells onto the CAM of 10-day old chick embryos, a 2-cm diameter wide window was opened in the flat pole of the eggshell with an electric drill equipped with a 0.3-mm thick×22-mm diameter Carborundum disc. The shell window was removed with forceps. The inner shell membrane was carefully punctured with a fine sterile forcep and removed to expose the underlying CAM. A small portion of the CAM was then gently traumatized by laying a strip of lens tissue (1-cm wide) on the surface of the CAM and then removing it immediately.
Inoculation, closure & incubation. The inoculum (1×10^6 cells/egg for CNE2 cell line and 3×10^6 cells/egg for Mewo cell line in 50 μl of blank medium) was applied onto the small patch of traumatized CAM. Following inoculation, the window was covered with a 35 mm tissue culture dish and sealed with scotch tape. The embryos were returned to the incubator in an upright position and allowed to incubate for seven additional days, with daily monitoring.
Peptide treatment & assessment of growth inhibitory effects. The treatment was initiated two days after tumor inoculation.
The eggs were randomized into 4 treatment groups, with each group comprising at least 4 biological replicates. […]

PARP cleavage = assay: Western blot analysis of PARP cleavage in U2OS cells; type: cell-based, human; settings: 50 μM decoy peptides, 72 h
Method: Denaturing SDS-PAGE and western blotting. Proteins from whole cell lysate and IP complexes were separated using standard denaturing polyacrylamide gel electrophoresis as described previously (Hsu, S. I. H., et al. EMBO J 20, 2273-2285 (2001)).
FIG. 6: Caspase assay. (A) Caspase 3 protease activity in U2OS cells exposed to either Eto (Etoposide) for 24 h or 50 μM decoy peptides for 48 or 72 h, were assayed using the Ac-DEVD-AFC fluorogenic substrate. […] Values represent the average +/− standard deviation of two independent experiments. Control: cells cultured in normal growth medium; Vehicle: cells cultured in the presence of 0.5% DMSO; (B) Western blot analysis of PARP cleavage. U2OS cells were exposed to either Eto (Etoposide) for 24 h or 50 μM decoy peptides for 72 h. Lane 1: Vehicle cells (cultured in the presence of 0.5% DMSO for 24 h); Lane 2: 25 μM Eto; Lane 3: 250 μM Eto; Lane 4: Vehicle (cells cultured in the presence of 0.5% DMSO for 72 h); Lane 5: *SCR; Lane 6: *Br1; Lane 7: *Br2.

Geminin = assay: Protein decay analysis of Geminin in U2OS cells (cycloheximide); type: cell-based, human; settings: for Geminin steady state levels at 5-h post-CHX treatment: cycloheximide; for Geminin protein decay kinetics: cycloheximide 20 μg/ml, 0-5 h
Method: Protein decay analysis. Transfected or peptide-treated cells were exposed to 20 μg/ml cycloheximide (CHX). Whole cell lysates were prepared from the treated cells at 0, 1, 2, 3, 4 or 5-h post-CHX treatment for Western blot analysis. FIG. 7: Cell cycle protein expression profile and protein decay analysis. (A) Protein expression profile of U2OS cells released from nocodazole arrest in the absence or presence of decoy peptide treatment. Protein expression of various cyclins and Cdks was assessed by Western blotting using whole cell lysates from synchronized U2OS cells at 4, 8, 12, 16, 20 and 24 h after release. Coomassie-stained proteins served as loading controls; (B) U2OS cells transfected with vector backbone (vehicle) or pRc/cyclin E and pCMV/Cdk2 (1 μg each), were arrested at the G2/M boundary by exposure to nocodazole (75 ng/ml) and then released to re-enter the cell cycle. Protein expression of cyclin E and Geminin was assessed using whole cell lysates from synchronized U2OS cells at 0, 4, 8, 12, 16 and 20 h after release; (C) Protein decay analysis of Geminin expression in the absence or presence of cyclin E/Cdk2 over-expression (left panel) or in the absence or presence of decoy peptide treatment (right panel) by Western blotting (WB). Coomassie stained proteins served as the loading control (C).

Row | Sequence | transcriptional activity of the E2F-responsive luciferase reporter [1] | growth of CNE2 tumor (tumour weight) (CNE2 tumor) | PARP cleavage compared to vehicle or *SCR-treated control (PARP cleavage) | Geminin steady state levels at 5-h post-CHX treatment (Geminin) | Geminin protein decay kinetics (Geminin)
1 | ERQIKIWFQNRRMKWKKATGCLLDDGLEGLFEDID (ERQIKIWFQNRRMKWKKATGCLLDDGLEGLFEDID-NH2) [*Br1] | decreased the transcriptional activity | significantly inhibited the growth of CNE2 tumor | not associated with significant PARP cleavage | remained persistently high | significantly slower decay rate
2 | ERQIKIWFQNRRMKWKKTGFLTDLTLDDILFADID (ERQIKIWFQNRRMKWKKTGFLTDLTLDDILFADID-NH2) [*Br2] | decreased the transcriptional activity | significantly inhibited the growth of CNE2 tumor | not associated with significant PARP cleavage | remained persistently high | significantly slower decay rate
